# From PMC10584170, “Machine learning-based phenotypic imaging to characterise the targetable biology of Plasmodium falciparum male gametocytes for the development of transmission-blocking antimalarials” (PLOS Pathogens, 2023)
# Columns and labels:
# [1] = test system: P. falciparum male gametocytes; assay: P. falciparum Dual Gamete Formation Assay (PfDGFA), male readout (exflagellation); assay type: cell-based, Plasmodium falciparum NF54; conditions: for Average inhibition male (%): average of replicates; for % inhibition male (individual replicates) R1: replicate R1; for % inhibition male (individual replicates) R4: replicate R4; for % inhibition male (individual replicates) R3: replicate R3; for Activity: hit = >50% inhibition in male or female readout in at least 3 replicates, 0 = no class assigned
# Procedure, shortened: (§1)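 Two sex-specific readouts come from one well: male exflagellation centres recorded by brightfield video right after activation, and female gametes scored by Cy3-anti-Pfs25 fluorescence after 24 h at 28°C.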
# [2] = test system: P. falciparum female gametocytes; assay: P. falciparum Dual Gamete Formation Assay (PfDGFA), female readout (Pfs25-positive female gametes); assay type: cell-based, Plasmodium falciparum NF54; conditions: for Average inhibition female (%): average of replicates; for % inhibition female (individual replicates) R1: replicate R1; for % inhibition female (individual replicates) R3: replicate R3; for % inhibition female (individual replicates) R4: replicate R4
# Procedure, shortened: as §1
# [3] = PfDGFA at 2µM, 24h preincubation with gametocytes
# [4] = number of replicates with >50% inhibition in the male readout, 2µM
# [5] = number of replicates with >50% inhibition in the female readout, 2µM
# [6] = 2µM, 24h preincubation with gametocytes prior to induction of gametogenesis
# [7] = 2µM, 24h preincubation, hits selected on >50% inhibition in the male readout across replicates
# [8] = PfDGFA at 2µM, 24h preincubation
# [9] = 2µM, 24h preincubation, hits selected on >50% inhibition in the female readout across replicates
# [10] = PfDGFA at 2µM, 24h preincubation with gametocytes prior to induction of gametogenesis
# [11] = 2µM, 24h preincubation, number of replicates with >50% inhibition in the male readout
# [12] = 2µM, 24h preincubation, number of replicates with >50% inhibition in the female readout
# [13] = 2µM, 24h preincubation with gametocytes
smiles,measurement,setting,value
Cc1cc(N)nc2ccc(-c3ccc(CCN)cc3)cc12 [TCMDC-137786],Average inhibition male (%),[1]; [3],75.8%
same,% inhibition male (individual replicates) R1,[1]; [3],70.7%
same,% inhibition male (individual replicates) R4,[1]; [3],86.5%
same,HitlevelM,[1]; [4],3
same,Average inhibition female (%),[2]; [3],37.0%
same,% inhibition female (individual replicates) R1,[2]; [3],36.7%
same,% inhibition female (individual replicates) R3,[2]; [3],37.4%
same,% inhibition female (individual replicates) R4,[2]; [3],36.1%
same,HitlevelF,[2]; [5],0
CCOc1ccc2ccccc2c1CNCCCCCCNCc1c(OCC)ccc2ccccc12.CS(=O)(=O)O [TCMDC-137791],Average inhibition male (%),[1]; [3],87.1%
same,% inhibition male (individual replicates) R1,[1]; [3],89.3%
same,% inhibition male (individual replicates) R3,[1]; [3],68.9%
same,% inhibition male (individual replicates) R4,[1]; [3],93.6%
same,HitlevelM,[1]; [4],4
same,Average inhibition female (%),[2]; [3],47.4%
same,% inhibition female (individual replicates) R1,[2]; [3],37.1%
same,% inhibition female (individual replicates) R3,[2]; [3],17.2%
same,% inhibition female (individual replicates) R4,[2]; [3],66.6%
same,HitlevelF,[2]; [5],2
c1cc(Cc2ccc(Nc3c4ccccc4nc4ccccc34)cc2)cc(Nc2c3ccccc3nc3ccccc23)c1 [TCMDC-137793],Average inhibition male (%),[1]; [6],2.5%
same,% inhibition male (individual replicates) R1,[1]; [6],17.2%
same,% inhibition male (individual replicates) R3,[1]; [6],-11.5%
same,% inhibition male (individual replicates) R4,[1]; [6],-9.8%
same,HitlevelM,[1]; [7],0
same,Activity,[1]; [8],0
same,Average inhibition female (%),[2]; [6],14.4%
same,% inhibition female (individual replicates) R1,[2]; [6],13.9%
same,% inhibition female (individual replicates) R3,[2]; [6],7.5%
same,% inhibition female (individual replicates) R4,[2]; [6],13.1%
same,HitlevelF,[2]; [9],0
COc1cc2ccccc2c(CNCCCCCCNCc2c(OC)c(OC)cc3ccccc23)c1OC.CS(=O)(=O)O [TCMDC-137795],Average inhibition male (%),[1]; [3],66.8%
same,% inhibition male (individual replicates) R1,[1]; [3],59.0%
same,% inhibition male (individual replicates) R3,[1]; [3],36.7%
same,% inhibition male (individual replicates) R4,[1]; [3],86.9%
same,HitlevelM,[1]; [4],3
same,Average inhibition female (%),[2]; [3],31.5%
same,% inhibition female (individual replicates) R1,[2]; [3],34.0%
same,% inhibition female (individual replicates) R3,[2]; [3],23.0%
same,% inhibition female (individual replicates) R4,[2]; [3],18.6%
same,HitlevelF,[2]; [5],1
Br.c1cc(C2=NC3CCCCC3N2)ccc1OCCCCCOc1ccc(C2=NC3CCCCC3N2)cc1 (stereo not drawn) [TCMDC-137802],% inhibition male (individual replicates) R1,[1]; [10],3.7%
same,% inhibition male (individual replicates) R3,[1]; [10],3.4%
same,% inhibition male (individual replicates) R4,[1]; [10],-3.8%
same,Average inhibition male (%),[1]; [8],-1.7%
same,% inhibition female (individual replicates) R1,[2]; [10],13.0%
same,% inhibition female (individual replicates) R3,[2]; [10],-14.3%
same,% inhibition female (individual replicates) R4,[2]; [10],-0.44%
same,Average inhibition female (%),[2]; [8],3.6%
Nc1nc(N)c2c(ccc3c2ccn3Cc2cccc(F)c2)n1 [TCMDC-137810],Average inhibition male (%),[1]; [6],57.9%
same,% inhibition male (individual replicates) R1,[1]; [6],71.9%
same,% inhibition male (individual replicates) R3,[1]; [6],59.3%
same,% inhibition male (individual replicates) R4,[1]; [6],64.6%
same,HitlevelM,[1]; [11],3
same,Average inhibition female (%),[2]; [6],73.3%
same,% inhibition female (individual replicates) R1,[2]; [6],69.9%
same,% inhibition female (individual replicates) R3,[2]; [6],85.4%
same,% inhibition female (individual replicates) R4,[2]; [6],66.6%
same,HitlevelF,[2]; [12],4
COc1cccc(Cn2ccc3c4c(N)nc(N)nc4ccc32)c1 [TCMDC-137811],Average inhibition male (%),[1]; [6],42.3%
same,% inhibition male (individual replicates) R1,[1]; [6],37.2%
same,% inhibition male (individual replicates) R3,[1]; [6],47.4%
same,% inhibition male (individual replicates) R4,[1]; [6],43.4%
same,HitlevelM,[1]; [11],0
same,Average inhibition female (%),[2]; [6],75.4%
same,% inhibition female (individual replicates) R1,[2]; [6],72.3%
same,% inhibition female (individual replicates) R3,[2]; [6],74.8%
same,% inhibition female (individual replicates) R4,[2]; [6],79.8%
same,HitlevelF,[2]; [12],4
CS(=O)(=O)O.FC(F)(F)COc1ccc2ccccc2c1CNCCCCCCNCc1c(OCC(F)(F)F)ccc2ccccc12 [TCMDC-137816],Average inhibition male (%),[1]; [13],91.3%
same,% inhibition male (individual replicates) R1,[1]; [13],97.0%
same,% inhibition male (individual replicates) R3,[1]; [13],82.6%
same,% inhibition male (individual replicates) R4,[1]; [13],90.9%
same,Average inhibition female (%),[2]; [13],42.8%
same,% inhibition female (individual replicates) R1,[2]; [13],37.4%
same,% inhibition female (individual replicates) R3,[2]; [13],26.9%
same,% inhibition female (individual replicates) R4,[2]; [13],39.6%
N#Cc1ccc(Cn2ccc3c4c(N)nc(N)nc4ccc32)cc1 [TCMDC-137820],Average inhibition male (%),[1]; [6],57.5%
same,% inhibition male (individual replicates) R1,[1]; [6],46.1%
same,% inhibition male (individual replicates) R3,[1]; [6],51.2%
same,% inhibition male (individual replicates) R4,[1]; [6],67.4%
same,HitlevelM,[1]; [11],3
same,Average inhibition female (%),[2]; [6],75.9%
same,% inhibition female (individual replicates) R1,[2]; [6],77.9%
same,% inhibition female (individual replicates) R3,[2]; [6],77.4%
same,% inhibition female (individual replicates) R4,[2]; [6],70.8%
same,HitlevelF,[2]; [12],4
COc1cc(CNCCCCCCNCc2cc(OC)cc3ccccc23)c2ccccc2c1.CS(=O)(=O)O [TCMDC-137823],Average inhibition male (%),[1]; [6],27.1%
same,% inhibition male (individual replicates) R1,[1]; [6],24.9%
same,% inhibition male (individual replicates) R3,[1]; [6],12.3%
same,% inhibition male (individual replicates) R4,[1]; [6],38.9%
same,HitlevelM,[1]; [7],0
same,Activity,[1]; [8],0
same,Average inhibition female (%),[2]; [6],15.2%
same,% inhibition female (individual replicates) R1,[2]; [6],16.9%
same,% inhibition female (individual replicates) R3,[2]; [6],3.5%
same,% inhibition female (individual replicates) R4,[2]; [6],20.5%
same,HitlevelF,[2]; [9],0
CCCCOc1cc(CNCCCCCCNCc2cc(OCCCC)cc3ccccc23)c2ccccc2c1.CS(=O)(=O)O [TCMDC-137824],Average inhibition male (%),[1]; [6],32.5%
same,% inhibition male (individual replicates) R1,[1]; [6],29.7%
same,% inhibition male (individual replicates) R3,[1]; [6],-0.8%
same,% inhibition male (individual replicates) R4,[1]; [6],46.2%
same,HitlevelM,[1]; [11],1
same,Average inhibition female (%),[2]; [6],23.5%
same,% inhibition female (individual replicates) R1,[2]; [6],22.5%
same,% inhibition female (individual replicates) R3,[2]; [6],5.4%
same,% inhibition female (individual replicates) R4,[2]; [6],30.9%
same,HitlevelF,[2]; [12],0
COc1c(OC)c(OC)c2ccccc2c1CNCCCCCCNCc1c(OC)c(OC)c(OC)c2ccccc12.Cl [TCMDC-137827],Average inhibition male (%),[1]; [3],67.6%
same,% inhibition male (individual replicates) R1,[1]; [3],64.0%
same,% inhibition male (individual replicates) R4,[1]; [3],54.3%
same,HitlevelM,[1]; [4],3
same,Average inhibition female (%),[2]; [3],37.0%
same,% inhibition female (individual replicates) R1,[2]; [3],45.3%
same,% inhibition female (individual replicates) R3,[2]; [3],25.5%
same,% inhibition female (individual replicates) R4,[2]; [3],33.3%
same,HitlevelF,[2]; [5],0
CCN(C)C(=O)n1ncc2c3c(N)nc(N)nc3ccc21 [TCMDC-137828],% inhibition male (individual replicates) R1,[1]; [10],33.9%
same,% inhibition male (individual replicates) R3,[1]; [10],38.2%
same,% inhibition male (individual replicates) R4,[1]; [10],21.2%
same,Average inhibition male (%),[1]; [8],34.9%
same,% inhibition female (individual replicates) R1,[2]; [10],0.36%
same,% inhibition female (individual replicates) R3,[2]; [10],-2.4%
same,% inhibition female (individual replicates) R4,[2]; [10],3.1%
same,Average inhibition female (%),[2]; [8],-0.8%
COc1c(CNCCCCCCNCc2c(OC)c(OC)c3ccccc3c2OC)c(OC)c2ccccc2c1OC.CS(=O)(=O)O [TCMDC-137837],Average inhibition male (%),[1]; [6],26.0%
same,% inhibition male (individual replicates) R1,[1]; [6],25.5%
same,% inhibition male (individual replicates) R3,[1]; [6],24.6%
same,% inhibition male (individual replicates) R4,[1]; [6],53.4%
same,HitlevelM,[1]; [7],1
same,Activity,[1]; [8],0
same,Average inhibition female (%),[2]; [6],13.6%
same,% inhibition female (individual replicates) R1,[2]; [6],13.3%
same,% inhibition female (individual replicates) R3,[2]; [6],14.5%
same,% inhibition female (individual replicates) R4,[2]; [6],16.6%
same,HitlevelF,[2]; [9],0
